Test results as given in patent publication US10413610B2, “Liquid formulation” (Luoda Pharma Pty Ltd, priority 2012, dated 2019).

What was measured:
[1] = parameters: species or system dogs; conditions: dog, in vivo
From the text: The results for both IVPs 3 and 4 are consistent with this value.

[2] = cited from earlier work

Compound | published AUC for benazeprilat scaled to a dose of 0.25 mg/kg [1] | effect of addition of HPβCD on aqueous solubility of pimobendan ([2]; pH between 3 and 5) | solubility at pH 7 ([2]; water, pH 7) | volume of water in which 1 g of pimobendan dissolves ([2]; water)
CCOC(=O)[C@H](CCc1ccccc1)N[C@H]1CCc2ccccc2N(CC(=O)O)C1=O [benazepril, Benazepril] | 114.9 ng/h/mL | – | – | –
COc1ccc(-c2nc3ccc(C4=NNC(=O)CC4C)cc3[nH]2)cc1 (racemic) [pimobendan, (RS)-6-[2-(4-methoxyphenyl)-1H-benzimidazol-5-yl]-5-methyl-4,5-dihydropyridazin-3(2H)-one] | – | does not effectively increase the aqueous solubility | 0.1 mg per 100 mL | 10,000 mL
